Patent US20160213499A1, “BIODEGRADABLE ENDOPROSTHESES AND METHODS FOR THEIR FABRICATION” (Elixir Medical Corporation, priority 2015, published 2016)

Assay: Pharmacokinetic release profile of novolimus from a stent (FIG. 35)
Type: in vivo

CO[C@@H]1C[C@H](C[C@@H](C)[C@@H]2CC(=O)[C@H](C)/C=C(\C)[C@@H](O)[C@@H](OC)C(=O)[C@H](C)C[C@H](C)/C=C/C=C/C=C(\C)[C@@H](O)C[C@@H]3CC[C@@H](C)[C@@](O)(O3)C(=O)C(=O)N3CCCC[C@H]3C(=O)O2)CC[C@H]1O [novolimus, 16-O-desmethyl-rapamycin]
tissue drug concentration (at 90 days): 0.5 ng/mg
drug released (in one month): over 85%
